The values below come from patent publication US20130261132A1, “CALCIUM-SENSING RECEPTOR-ACTIVE COMPOUNDS” (LEO PHARMA A/S, priority 2010, published 2013).

Where only a bound is given, the exact number is not on record here.

The target in the test is T1, human CaSR (Homo sapiens, UniProt P41180).
T1 sequence (P41180 20-1078): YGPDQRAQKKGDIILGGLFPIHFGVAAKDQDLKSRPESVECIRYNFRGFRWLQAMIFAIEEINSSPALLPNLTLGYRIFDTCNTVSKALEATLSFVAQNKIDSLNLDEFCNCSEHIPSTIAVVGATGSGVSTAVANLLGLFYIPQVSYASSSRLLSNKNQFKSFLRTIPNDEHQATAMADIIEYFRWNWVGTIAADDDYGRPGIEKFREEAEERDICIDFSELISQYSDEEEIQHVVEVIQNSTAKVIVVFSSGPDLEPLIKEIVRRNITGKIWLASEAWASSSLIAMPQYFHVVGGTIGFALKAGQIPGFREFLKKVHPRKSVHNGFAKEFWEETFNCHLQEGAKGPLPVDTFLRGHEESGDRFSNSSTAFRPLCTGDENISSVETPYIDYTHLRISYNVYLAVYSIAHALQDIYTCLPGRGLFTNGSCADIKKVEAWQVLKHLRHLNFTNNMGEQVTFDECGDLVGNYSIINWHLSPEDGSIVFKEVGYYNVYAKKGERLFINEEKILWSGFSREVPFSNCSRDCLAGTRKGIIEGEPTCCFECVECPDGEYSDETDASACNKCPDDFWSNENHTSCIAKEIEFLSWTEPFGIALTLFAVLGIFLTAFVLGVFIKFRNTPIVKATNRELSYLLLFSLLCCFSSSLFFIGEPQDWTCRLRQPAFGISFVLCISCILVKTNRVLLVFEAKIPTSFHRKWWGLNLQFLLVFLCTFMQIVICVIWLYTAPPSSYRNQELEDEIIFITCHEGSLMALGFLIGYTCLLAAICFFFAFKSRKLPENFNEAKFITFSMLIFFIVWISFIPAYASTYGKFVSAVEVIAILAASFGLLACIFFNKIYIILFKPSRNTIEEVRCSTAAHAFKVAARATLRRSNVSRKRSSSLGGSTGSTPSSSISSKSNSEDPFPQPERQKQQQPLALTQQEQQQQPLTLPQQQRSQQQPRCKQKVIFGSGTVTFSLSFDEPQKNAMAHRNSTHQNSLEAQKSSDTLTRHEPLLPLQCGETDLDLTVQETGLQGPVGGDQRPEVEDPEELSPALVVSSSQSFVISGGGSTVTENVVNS
Nature of the test: Functional whole cell assay (modulation of human CaSR), IP1 accumulation in CHO-K1 cells. The class given is cell-based. Particulars: CHO-K1 cells stably expressing human CaSR, final Ca2+ 1.9 mM, IP1 readout; concentration producing 50% of maximum agonistic response. From the text: The assay investigates a compound's functional ability to act as a biological positive modulator on the human CaSR. Activation of the receptor expressed on CHO-K1 cells is detected through the G alpha q pathway, the activation of phospholipase C and the accumulation of intracellular inositol phosphate (IP) as described earlier [Sandrine Ferry, Bruno Chatel, Robert H. Dodd, Christine Lair, Danielle Gully, Jean-Pierre Maffrand, and Martial Ruat. Effects of Divalent Cations and of a Calcimimetic on Adrenocorticotropic Hormone Release in Pituitary Tumor Cells. Biochemical and biophysical research Communications 238, 866-873 (1997)]. The human CaSR is stably expressed on a CHO-K1 cell clone, stimulated with a basal level of calcium and challenged with the tested compound. The level of IP1 is determined using the IP-One Terbium htrf kit (Cisbio, France). CHO-K1 cells not transfected with the CaSR fail to elicit an IP1 response upon calcium and/or compound stimulation.
The ORF coding for the human CaSR (genebank: NM_000388) was acquired from Invitrogen Corp, USA and subsequently cloned into the mammalian expression vector pCDA3.1.
CHO-K1 cells were transfected using Lipofectamine according to manufacturer's protocol (400.000 cells/well were seeded in a 6-well plate and transfected after 24 hours using 2 μg DNA and 5 μl lipofectamine). After another 24 hours the cells were detached, seeded and subjected to 1 mg/ml of G-418. Following 7 days growth single clones were picked, the CaSR expression evaluated using the 5C10 antibody against CaSR, the clones with the highest expression were selected and tested for functional response. The preferred clone was cultured according to standard procedures described in ATCC (American Type Culture Collection) protocols for CHO-K1 with the addition of 500 μg/ml G-418.
On the assay day, cells were thawed, harvested and resuspended to 4*10^6 cells/ml in stimulation buffer (containing: Hepes 10 mM, MgCl2 0.5 mM, KCl 4.2 mM, NaCl 146 mM, glucose 5.5 mM, LiCl 50 mM, BSA 0.5% at pH 7.4). Ten μl cell solution was pipetted into wells of a white 384-well plate (Perkin Elmer Optiplate) containing 2 μl compound diluted in assay buffer (containing: Hepes 10 mM, MgCl2 0.5 mM, KCl 4.2 mM, NaCl 146 mM, glucose 5.5 mM, LiCl 50 mM, CaCl2 11.4 mM at pH 7.4), resulting in a final Ca^2+ concentration of 1.9 mM. After compound stimulation for 1 hour at 37° C. and 15 min at room temperature, 10 ul of IP-One assay detection reagent (prepared as described by the IP-One assay kit manufacturer) was added and the plate was incubated for another 1 hour at room temperature. Finally the plate was read using a Perkin Elmer EnVision, according to the protocol supplied by the IP-One assay kit manufacturer. The FRET ratio was calculated by dividing the 665 nm emission signal with that of the 615 nm.
The molar concentration of a compound that produces 50% of the maximum agonistic response (the […] value) is calculated according to the equation “General sigmoidal curve with Hill slope, a to d” (Equation 1). This model describes a sigmoidal curve with an adjustable baseline. The equation can be used to fit curves where response is either increasing or decreasing with respect to the independent variable, X. […]
y=(a−d)/(1+(x/c)̂b)+d Equation 1 x=concentration of tested compound […]
a=min response as compound concentration approaches 0 d=max response as concentration of tested compound is increasing […]
b=Hill coefficient or curve slope
The term EC50 denotes the concentration that produces a half-maximal response. Read a low EC50 as a more potent agent. Compound `COc1cc([C@@H](C)N[C@H]2CC[C@@H](c3ccc(OCC(=O)NCCS(N)(=O)=O)cc3)C2)ccc1F` [Compound 104, 2-[4-[(1R,3S)-3-[[(1R)-1-(4-Fluoro-3-methoxy-phenyl)ethyl]-amino]-cyclopentyl]phenoxy]-N-(2-sulfamoylethyl)acetamide] gave an EC50 of less than 200 nM.

In turn, `COc1cc([C@@H](C)N[C@H]2CC[C@@H](c3ccc(OCC(=O)N4CCN(S(N)(=O)=O)CC4)cc3)C2)ccc1F` [Compound 110, 4-[2-[4-[(1R,3S)-3-[[(1R)-1-(4-Fluoro-3-methoxy-phenyl)-ethyl]-amino]cyclopentyl]phenoxy]acetyl]piperazine-1-sulfonamide] showed a concentration giving a half-maximal response (EC50) of less than 200 nM.

Take `COc1cc([C@@H](C)N[C@H]2CC[C@@H](c3ccc(OCC(=O)NCCNCCO)cc3)C2)ccc1F` [Compound 106, 2-[4-[(1R,3S)-3-[[(1R)-1-(4-Fluoro-3-methoxy-phenyl)ethyl]-amino]-cyclopentyl]phenoxy]-N-[2-(2-hydroxyethylamino)ethyl]acetamide]: the EC50 was less than 200 nM.

`COc1cc([C@@H](C)N[C@H]2CC[C@@H](c3ccc(OCC(=O)N4CCN(C(C)=O)CC4)cc3)C2)ccc1F` [Compound 109, 1-(4-Acetylpiperazin-1-yl)-2-[4-[(1R,3S)-3-[[(1R)-1-(4-fluoro-3-methoxy-phenyl)ethyl]amino]cyclopentyl]phenoxy]ethanone] showed an EC50 of less than 200 nM.

The compound `COc1cc([C@@H](C)N[C@H]2CC[C@@H](c3ccc(OCC(=O)N4CCNCC4)cc3)C2)ccc1F` [Compound 103, 2-[4-[(1R,3S)-3-[[(1R)-1-(4-Fluoro-3-methoxy-phenyl)ethyl]-amino]-cyclopentyl]phenoxy]-1-piperazin-1-yl-ethanone] came in with an EC50 of less than 200 nM.

`C[C@@H](N[C@H]1CC[C@@H](c2ccc(OCC(=O)NC3CCNCC3)cc2)C1)c1cccc2ccccc12` [Compound 112, 2-[4-[(1R,3S)-3-[[(1R)-1-(1-Naphthyl)ethyl]amino]cyclopentyl]-phenoxy]-N-(4-piperidyl)acetamide] showed an EC50 of less than 200 nM.

The compound `COc1cc([C@@H](C)N[C@H]2CC[C@@H](c3ccc(OCC(=O)NCCNS(C)(=O)=O)cc3)C2)ccc1F` [Compound 108, 2-[4-[(1R,3S)-3-[[(1R)-1-(4-Fluoro-3-methoxy-phenyl)ethyl]-amino]-cyclopentyl]phenoxy]-N-[2-(methanesulfonamido)ethyl]acetamide] showed a half-maximal effective concentration (EC50) of less than 200 nM.
